Laboratory results from PubChem BioAssay (NCI).
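GI50 marks 50% less growth. At the TGI there is no net growth.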

Key:
Assay in all cases: NCI-60 cell line screen, 384-well format
ACHN renal = test system: ACHN renal
BT-549 breast = test system: BT-549 breast
HS 578T breast = test system: HS 578T breast
IGROV1 ovarian = test system: IGROV1 ovarian
LOX IMVI melanoma = test system: LOX IMVI melanoma
M14 melanoma = test system: M14 melanoma
MDA-MB-435 melanoma = test system: MDA-MB-435 melanoma
NCI/ADR-RES ovarian = test system: NCI/ADR-RES ovarian
OVCAR-4 ovarian = test system: OVCAR-4 ovarian
RXF 393 renal = test system: RXF 393 renal
SF-295 CNS = test system: SF-295 CNS
U251 glioblastoma = test system: U251 glioblastoma
UO-31 renal = test system: UO-31 renal

SMILES: COC(=O)c1ccc2c(C(=Nc3ccc(N(C)C(=O)CN4CCN(C)CC4)cc3)c3ccccc3)c(O)[nH]c2c1
- GI50 (ACHN renal): 1360 nM
- TGI (ACHN renal): 2890 nM
- GI50 (BT-549 breast): 1490 nM
- TGI (BT-549 breast): 2830 nM
- GI50 (HS 578T breast): 1280 nM
- TGI (HS 578T breast): 2820 nM
- GI50 (IGROV1 ovarian): 427 nM
- TGI (IGROV1 ovarian): 4470 nM
- GI50 (LOX IMVI melanoma): 2230 nM
- TGI (LOX IMVI melanoma): 3690 nM
- GI50 (M14 melanoma): 1870 nM
- TGI (M14 melanoma): 3290 nM
- GI50 (MDA-MB-435 melanoma): 1860 nM
- TGI (MDA-MB-435 melanoma): 3330 nM
- GI50 (NCI/ADR-RES ovarian): 14600 nM
- TGI (NCI/ADR-RES ovarian): > 100000 nM
- GI50 (OVCAR-4 ovarian): 1440 nM
- TGI (OVCAR-4 ovarian): 2870 nM
- GI50 (RXF 393 renal): 1110 nM
- TGI (RXF 393 renal): 2580 nM
- GI50 (SF-295 CNS): 1830 nM
- TGI (SF-295 CNS): 3250 nM
- GI50 (U251 glioblastoma): 1460 nM
- TGI (U251 glioblastoma): 2860 nM
- GI50 (UO-31 renal): 1400 nM
- TGI (UO-31 renal): 2930 nM
